Data set [1] deals with TF/FVIIa (Homo sapiens, UniProt P08709). The experiment in a line: Inhibition of TF/factor VIIa (TF/FVIIa-IC50). The class given is biochemical. From the text: The inhibition of factor VIIa by the compounds according to the invention and the measurement of the anticoagulant and antithrombotic activity can be determined by conventional in-vitro or in-vivo methods. A conventional method for the measurement of the inhibition of factor VIIa is described, for example, by H. F. Ronning et al. in Thrombosis Research 1996, 84, 73-81.

Data set [2] deals with factor Xa (Homo sapiens, UniProt P00742). The experiment in a line: Inhibition of factor Xa (FXa-IC50). The format is biochemical. From the text: The inhibition of factor Xa by the compounds according to the invention and the measurement of the anticoagulant and antithrombotic activity can be determined by conventional in-vitro or in-vivo methods. A suitable method is described, for example, by J. Hauptmann et al. in Thrombosis and Haemostasis 1990, 63, 220-223.
The inhibition of factor Xa can be measured, for example by the method of T. Hara et al. in Thromb. Haemostas. 1994, 71, 314-319.

Sequence of TF/FVIIa (P08709 213-466 limits assumed): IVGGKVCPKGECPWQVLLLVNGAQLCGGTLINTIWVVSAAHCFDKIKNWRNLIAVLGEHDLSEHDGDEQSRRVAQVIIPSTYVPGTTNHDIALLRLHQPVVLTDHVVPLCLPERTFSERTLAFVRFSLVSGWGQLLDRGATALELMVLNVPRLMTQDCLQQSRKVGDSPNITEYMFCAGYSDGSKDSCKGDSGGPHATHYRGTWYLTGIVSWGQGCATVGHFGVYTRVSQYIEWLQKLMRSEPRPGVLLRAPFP
Sequence of TF/FVIIa (P08709 61-212 limits assumed): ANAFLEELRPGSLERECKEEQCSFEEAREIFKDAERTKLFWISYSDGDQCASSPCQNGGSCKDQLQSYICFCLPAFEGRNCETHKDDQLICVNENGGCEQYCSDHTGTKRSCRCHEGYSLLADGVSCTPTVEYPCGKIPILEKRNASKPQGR
Sequence of TF/FVIIa (P13726 33-295 partner): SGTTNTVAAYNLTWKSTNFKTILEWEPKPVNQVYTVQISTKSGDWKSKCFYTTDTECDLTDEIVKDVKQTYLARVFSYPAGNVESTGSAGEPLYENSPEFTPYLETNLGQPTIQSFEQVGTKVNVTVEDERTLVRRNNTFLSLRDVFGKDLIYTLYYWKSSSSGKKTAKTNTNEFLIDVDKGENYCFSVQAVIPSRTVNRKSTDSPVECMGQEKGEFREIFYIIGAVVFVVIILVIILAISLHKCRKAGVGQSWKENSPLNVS
Sequence of factor Xa (P00742 235-488 limits assumed): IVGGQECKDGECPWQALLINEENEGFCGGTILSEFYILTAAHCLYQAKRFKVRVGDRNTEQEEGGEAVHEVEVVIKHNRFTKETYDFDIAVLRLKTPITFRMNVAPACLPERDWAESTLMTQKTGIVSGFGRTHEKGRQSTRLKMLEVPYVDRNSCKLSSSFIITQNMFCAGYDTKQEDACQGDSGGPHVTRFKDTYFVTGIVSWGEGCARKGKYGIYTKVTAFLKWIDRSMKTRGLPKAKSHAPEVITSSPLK
Sequence of factor Xa (P00742 41-179 limits assumed): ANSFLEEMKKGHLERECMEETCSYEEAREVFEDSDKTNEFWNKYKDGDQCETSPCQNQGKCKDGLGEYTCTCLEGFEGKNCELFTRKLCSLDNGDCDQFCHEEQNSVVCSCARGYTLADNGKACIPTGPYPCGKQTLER

As for `O=C(Cc1ccc2[nH]c(-c3ccc(Cl)s3)nc2c1)Nc1ccc(N2CCOCC2=O)cc1` [AA, 2-[2-(5-chlorothiophen-2-yl)-1H-benzimidazol-5-yl]-N-[4-(3-oxomorpholin-4-yl)phenyl]acetamide], the melting point was 200 °C (dec.). For the same compound, in data set [1], the IC50 was 190 nM. Besides, in data set [2], the half-inhibitory concentration (IC50) turned out to be 230 nM.

As for `Cc1cc(NC(=O)Cc2ccc3[nH]c(-c4ccc(Cl)s4)nc3c2)ccc1N1CCOCC1=O` [AB, 2-[2-(5-chlorothiophen-2-yl)-1H-benzimidazol-5-yl]-N-[3-methyl-4-(3-oxomorpholin-4-yl)phenyl]acetamide], the IC50 is 130 nM in data set [1] and 120 nM in data set [2].

In the case of `O=C(Cc1ccc2[nH]c(-c3ccc(Cl)s3)nc2c1)Nc1ccc(-n2ccccc2=O)cc1` [AC, 2-[2-(5-chlorothiophen-2-yl)-1H-benzimidazol-5-yl]-N-[4-(2-oxopyridin-1-yl)phenyl]acetamide], the values for the concentration for half-maximal inhibition (IC50) in data set [1] and in data set [2] were 130 nM and 180 nM, respectively.

(Values after patent US7566789B2, “Benzimidazole derivatives” (Merck Patent GmbH, priority 2002, dated 2009).)
